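Five concentrations, 48 hours, 96-well plates. GI50: concentration for 50% inhibition of growth. TGI is the concentration that stops growth completely.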
What was measured:
Test in all cases: inhibition of tumour cell growth, NCI panel, 48 h
[1] = test system: HOP-62 NSCLC
[2] = test system: LOX IMVI melanoma
[3] = test system: OVCAR-3 ovarian
[4] = test system: MDA-MB-435
[5] = test system: MALME-3M melanoma
[6] = test system: T-47D breast
[7] = test system: HOP-92 NSCLC
[8] = test system: DU-145 prostate
[9] = test system: M14 melanoma
[10] = test system: BT-549 breast

| SMILES | GI50 [1] [µM] | TGI [1] [µM] | GI50 [2] [µM] | TGI [2] [µM] | GI50 [3] [µM] | TGI [3] [µM] | GI50 [4] [µM] | TGI [4] [µM] | GI50 [5] [µM] | TGI [5] [µM] | GI50 [6] [µM] | TGI [6] [µM] | GI50 [7] [µM] | TGI [7] [µM] | GI50 [8] [µM] | TGI [8] [µM] | GI50 [9] [µM] | TGI [9] [µM] | GI50 [10] [µM] | TGI [10] [µM] |
| --- | --- | --- | --- | --- | --- | --- | --- | --- | --- | --- | --- | --- | --- | --- | --- | --- | --- | --- | --- | --- |
| NC(=O)CNc1ccc([As]=[As]c2ccc(NCC(N)=O)cc2)cc1 (stereo not given) | 3.94 | 14.6 | 6.03 | 23.8 | 2.1 | 6.14 | 6.24 | 56.6 | 2.62 | 9.71 | 1.44 | 17.4 | 1.63 | 15.1 | 6.48 | 35 | 5.02 | 20.6 |  |  |
| COc1cc2c3c(n(CCCN(C)CCO)c(=O)c2cc1OC)-c1cc2c(cc1C3=O)OCO2 | 1.17 | > 100 | 0.709 | 13.9 | 35.9 | > 100 | 16.6 | > 100 | > 55.7 | > 100 | 10.8 | > 100 | 2.82 | 35.1 | 0.816 | > 100 | 1.48 | > 68.9 | 3.13 | > 22.3 |
| CN(C)CCNc1nc2ccccc2c2c(=O)c3cc(F)ccc3sc12 | 1.89 | 3.93 | 1.63 | 3.03 | 1.84 | 3.33 | 1.66 | 3.06 | 1.65 | 3.15 |  |  |  |  | 1.77 | 3.21 | 1.9 | 3.55 | 3.52 | > 100 |
| CC1(C)N=C(N)N=C(N)N1c1cccc(OCCOc2cccc([N+](=O)[O-])c2)c1 | 31.2 | > 100 | 2.15 | > 100 | 5.13 | > 100 | 0.495 | > 100 | 7.54 | > 100 | 12.6 | > 100 | 3.51 | 73.5 | 4.38 | > 100 | 14.4 | > 100 | 7.18 | > 100 |
| O=C1/C(=C/N2N=C(c3ccc4ccccc4c3)CC2c2ccccc2O)SC(=S)N1c1cccnc1 (stereo not given) | 2.49 | > 100 | 1.24 | > 100 | 0.571 | 38.5 | 0.481 | 3.17 | 5.2 | > 100 | 3.8 | > 100 | 5.2 | > 100 | 1.5 | > 100 | 0.84 | > 100 |  |  |
| c1ccc(NCCSc2nc3ccccc3s2)cc1 |  | > 100 |  | > 100 |  | > 100 |  | > 100 |  | > 100 |  | > 100 |  | > 100 |  | > 100 |  | > 100 |  | > 100 |
| CNCCn1c(=O)c2cc(OC)c(OC)cc2c2cnc3cc4c(cc3c21)OCO4 | < 0.01 | 1.61 | < 0.01 | 0.1 | 0.0393 | 2.02 | 0.0189 | 2.02 | 0.05 | 5.75 | < 0.01 | 1.48 | < 0.0149 | 0.518 | < 0.01 | 1.27 | < 0.01 | 1.36 | 0.0309 | 1.79 |
| COC(=O)[C@]12CC[C@@H](C)[C@H](C)[C@@H]1C1=CC[C@@H]3[C@@]4(C)C(C=O)=C[C@@](C)(COC(=O)c5ccco5)[C@@H]4[C@H](O)C[C@@]3(C)[C@]1(C)CC2 | 2.16 | 6.07 | 1.57 | 2.94 | 1.87 | 3.73 |  |  | 0.224 | 1.17 | 2.37 | 39.5 | 1.56 | 4.27 |  |  | 0.305 | 2.6 | 2.07 | 6.65 |
| Clc1nc(Cl)c2ncn(Cc3ccccc3Cn3cnc4c(Cl)nc(Cl)nc43)c2n1 | 9.11 | 19.3 | 1.16 | 2.65 | 1.47 | 2.85 | 2.31 | 5.58 | 0.211 | 6.18 | 1.73 | 4.71 | 1.9 | 4.16 | 1.21 | 2.65 | 5.13 | 10 | 0.165 | 1.52 |
| O=C(NC1CCCCC1)c1ccc(Nc2ncnc3c2cnn3-c2ccccc2)cc1 | 2.62 | 8.77 | 4.49 | 22.3 | 14.3 | > 100 | 67.8 | > 100 | 1.97 | 4.94 | 20.2 | > 100 | 2.53 | 8.29 | 10.6 | 48.1 | 18.3 | > 100 | 5.69 | 26.4 |
| COc1ccc(-c2noc(N)c2-c2cc(OC)c3c(c2)OCO3)cc1 | 3.19 | > 100 | 4.02 | > 100 | 2.53 | 12.9 |  |  | 9.66 | > 100 | 3.61 | > 54.8 | 2.47 | 76.8 | 3.42 | > 90.9 | 1.3 | 7.02 | 3.01 | 61.9 |
| Oc1ccc(Oc2cnc3ccccc3n2)cc1 | > 100 | > 100 | > 100 | > 100 | > 100 | > 100 | > 100 | > 100 | > 100 | > 100 | 84.5 | > 100 |  |  | > 100 | > 100 | > 100 | > 100 | 12.3 | 57.5 |
| Cc1c2c(C(N)=O)nccc2c(C)c2c1c1ccccc1n2Cc1ccccc1 |  | 19.3 |  | 19.7 |  | 21.1 |  | > 100 |  |  |  | 79.5 |  | 25.1 |  | > 100 |  | > 100 |  | 90.4 |
| COc1cc(C(=O)O[C@H](C(N)=O)[C@]2(C)CO2)c2cccc(C)c2c1 | 2.23 | 5.35 |  |  | < 0.0317 | 8.21 | < 0.0215 | 0.126 | 0.13 | 0.646 | 1.11 | 8.1 | 0.654 | 2.28 | < 0.017 | 0.0928 | 2.13 | 4.84 | < 0.0418 | 0.655 |
| O=C1c2ccccc2C(=O)c2c(NCCN=Cc3ccccc3O)cccc21 | 6.61 | 52.3 | 3.89 | 9.63 | 2.38 | 7.92 | 2.51 | 7.4 | 1.55 | 3.84 | 3.46 | > 47.1 |  | 0.0676 | 2.22 | 7.66 | 7.44 | 32.7 | 2.81 | 8.51 |
| Cn1cc(-c2csc(-c3cn(C)c4ccc(F)cc34)n2)c2cnccc21 | 1.92 | 3.49 |  |  | 1.95 | 3.48 | 1.67 | 3.1 | 1.97 | 3.57 |  |  | 1.64 | 3.26 | 1.74 | 3.16 | 1.72 | 3.21 | 1.71 | 3.1 |

| SMILES | GI50 [1] [µM] | TGI [1] [µM] | GI50 [2] [µM] | TGI [2] [µM] | GI50 [3] [µM] | TGI [3] [µM] | GI50 [4] [µM] | TGI [4] [µM] | GI50 [5] [µM] | TGI [5] [µM] | GI50 [6] [µM] | TGI [6] [µM] | GI50 [7] [µM] | TGI [7] [µM] | GI50 [8] [µM] | TGI [8] [µM] | GI50 [9] [µM] | TGI [9] [µM] | GI50 [10] [µM] | TGI [10] [µM] |
| --- | --- | --- | --- | --- | --- | --- | --- | --- | --- | --- | --- | --- | --- | --- | --- | --- | --- | --- | --- | --- |
| O=C(NNc1cnccn1)c1nc2cc(F)ccc2n2cccc12 | 0.364 | > 100 |  |  | 0.311 | > 100 | 0.873 | > 100 | 1.06 | > 100 | 0.385 | > 100 |  |  | 0.745 | > 100 | 0.34 | 14.5 | 2.24 | > 62.8 |
| C=C1C(O)C2C(=C(C)C13CC3)C(=O)C(C)(C)C2OC (stereo not given) | > 100 | > 100 | > 100 | > 100 | > 100 | > 100 | > 100 | > 100 | > 100 | > 100 | 23.1 | 67.8 | 24.8 | > 100 | > 100 | > 100 |  |  | > 100 | > 100 |
| COc1ccc(-c2cc(-c3ccc(Nc4ccnc5cc(Cl)ccc45)cc3)nc(N3CCOCC3)n2)cc1 |  |  |  |  |  |  | 2.92 | > 100 |  |  |  |  | 4.83 | 49.4 |  |  | 2.81 | > 100 | 2.73 | > 100 |
| Cc1cc(NCCCCNc2ccnc3cc(Cl)ccc23)nc(Nc2ccc(C(=O)N3CCCCC3)cc2)n1 | 2.09 | 4.2 | 1.44 | 3.01 | 1.7 | 3.44 | 1.82 | 3.42 |  |  | 2.52 | 5.94 | 1.21 | 3.03 | 2.87 | 10.7 | 0.197 | 0.383 | 1.69 | 3.21 |
| COC(=O)C(=O)CC(=O)c1cccc(OC)c1 |  | > 100 |  | > 100 |  | > 100 |  | > 100 |  | > 100 |  | > 100 |  |  |  | > 100 |  | > 100 |  | > 100 |
| NC(N)=N/N=C(\N=Nc1ccccc1)c1ccc(Cl)cc1 | 5.1 | 18.8 | 1.18 | 3.54 | 2.8 | 7.24 | 1.7 | 4.36 | 4.68 | 17.2 | 2.31 | 8.17 |  |  | 7.38 | 21.3 | 1.51 | 4.39 | 4.86 | 19.2 |
| COc1cc(OC)c2sc(-c3ccc(-n4cncc4-c4cc(OC)c(OC)c(OC)c4)cc3)nc2c1 | 75.9 | > 100 | 5.4 | > 100 | 3.26 | > 100 | 3.41 | > 100 | 3.73 | > 100 | 3.35 | > 100 |  |  | > 100 | > 100 | 7.91 | > 100 | 5.23 | > 100 |
| N#CC(C#N)=C1CCCOc2c1ccc1ccccc21 | 79.5 | > 100 |  |  | > 100 | > 100 | > 100 | > 100 | > 100 | > 100 | > 100 | > 100 | 15.8 | 71.7 | > 100 | > 100 | > 100 | > 100 | 98.8 | > 100 |
| COc1cc(/C=C2\CCC/C(=C\c3ccc(OCC4CO4)c(OC)c3)C2=O)ccc1OCC1CO1 (stereo not given) | 3.38 | 9.59 | 1.23 | 3.78 | 2.44 | 6.23 |  |  | 1.95 | 4.56 | 2.98 | 12.2 | 3.3 | > 100 | 3.06 | 15.8 | 1.94 | 3.99 | 2.28 | 5.3 |
| Cc1sc2c(c1C)C(c1ccc(Cl)cc1)=N[C@@H](CC(=O)Nc1ccc(OCCOCCOCCOCCNc3cccc4c3C(=O)N(C3CCC(=O)NC3=O)C4=O)cc1)c1nnc(C)n1-2 (stereo not given in full) | < 0.01 | > 100 | 0.234 | 19.1 | 0.551 | > 100 | < 0.0453 | > 100 | > 100 | > 100 |  |  | < 0.0125 | > 51.8 | > 59.3 | > 100 | 0.388 | > 100 | < 0.0228 | > 100 |
| CC12CCC(=O)N1c1cccnc1N2 (stereo not given) |  | > 100 |  | > 100 |  | > 100 |  |  |  | > 100 |  |  |  | > 100 |  |  |  | > 100 |  |  |
| Cc1ccc(N2C(=O)N(c3ccc(C)cc3)C3(SC=NN3C)C2=O)cc1 (stereo not given) |  | > 100 |  | > 100 |  | > 100 |  |  |  | > 100 |  |  |  | > 100 |  |  |  | > 100 |  |  |
| C[Si](C)(C)CN1C(=O)c2ccccc2C1(O)c1ccccc1 (stereo not given) |  | > 100 |  | > 100 |  | > 100 |  |  |  | > 100 |  |  |  | 97.9 |  |  |  | > 100 |  |  |
| CC1COS(=O)O1 (stereo not given) |  | > 100 |  | > 100 |  | > 100 |  |  |  | > 100 |  |  |  | > 100 |  |  |  | > 100 |  |  |
| C1=NC(N(Cc2ccccc2)Cc2ccccc2)N(Cc2ccccc2)N1 (stereo not given) |  | 32.7 |  | 30.4 |  | 27.3 |  |  |  | 25.8 |  |  |  | 25.6 |  |  |  | 23.1 |  |  |

Source: PubChem BioAssay (NCI)
